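Results reflect a 48-hour exposure of cells in 96-well plates to compound at five concentrations. Definition used: TGI = concentration required for complete inhibition of growth.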

Here are results for seven molecules from PubChem BioAssay (NCI).

Test systems include K-562 leukemia; SK-MEL-5 melanoma; OVCAR-3 ovarian; HT29 colon; OVCAR-8 ovarian; TK-10 renal; MDA-N; OVCAR-5 ovarian; SK-MEL-28 melanoma; RXF 393 renal; HS 578T breast; DU-145 prostate; BT-549 breast; MDA-MB-231 breast; UO-31 renal; 786-0 renal; SF-539 CNS; CCRF-CEM leukemia; MALME-3M melanoma; SNB-19 CNS.
Holding throughout (assay): growth of human tumour cells (NCI), 48 h

For the molecule `CCOc1cc(C2SCC(=O)N2c2ccc3c(c2)Oc2c(Cl)c4c(c(Cl)c2=N3)Oc2cc(N3C(=O)CSC3c3ccc(O)c(OCC)c3)ccc2N=4)ccc1O` (stereo unspecified), the TGI with K-562 leukemia, with SK-MEL-5 melanoma, with OVCAR-3 ovarian, with HT29 colon, with OVCAR-8 ovarian and in the experiment with TK-10 renal was over 100 µM each time. Besides, the TGI in the experiment with MDA-N is over 100 µM; with OVCAR-5 ovarian, over 100 µM; with SK-MEL-28 melanoma, over 100 µM; in the experiment on RXF 393 renal it was 58.9 µM; in the experiment on HS 578T breast, over 100 µM; in the experiment with DU-145 prostate, over 100 µM. For the same molecule, the TGI is over 100 µM in the experiment on BT-549 breast; over 100 µM with MDA-MB-231 breast; over 100 µM in the experiment with UO-31 renal; over 100 µM with 786-0 renal; 28.2 µM in the experiment on SF-539 CNS.

On to `O=C1CCCCCCCCCCC1CN1CCOCC1` (stereo unspecified), for which the TGI in the experiment on CCRF-CEM leukemia, in the experiment with K-562 leukemia, in the experiment on SK-MEL-5 melanoma, in the experiment on OVCAR-3 ovarian, with MALME-3M melanoma and in the experiment with OVCAR-8 ovarian was over 100 µM each time. Also, the TGI with TK-10 renal, in the experiment on MDA-N, with OVCAR-5 ovarian, with SK-MEL-28 melanoma, with RXF 393 renal and with SNB-19 CNS was over 100 µM each time. In addition, the TGI in the experiment with HS 578T breast, with DU-145 prostate, in the experiment on BT-549 breast, in the experiment on MDA-MB-231 breast, in the experiment with UO-31 renal and with 786-0 renal was over 100 µM throughout. Besides, the TGI with SF-539 CNS was over 100 µM.

As to `CCCCc1nc(C)oc1C(C)C`, the TGI in the experiment with CCRF-CEM leukemia, in the experiment with K-562 leukemia, in the experiment with SK-MEL-5 melanoma, in the experiment with OVCAR-3 ovarian, in the experiment with MALME-3M melanoma and in the experiment on HT29 colon was over 100 µM in each case. The TGI with OVCAR-8 ovarian, in the experiment with TK-10 renal, in the experiment with MDA-N, in the experiment with OVCAR-5 ovarian, in the experiment on SK-MEL-28 melanoma and in the experiment with RXF 393 renal was over 100 µM throughout. For the same molecule, the TGI in the experiment with HS 578T breast, in the experiment with DU-145 prostate, in the experiment with BT-549 breast, with MDA-MB-231 breast, with UO-31 renal and in the experiment on 786-0 renal was over 100 µM throughout. In the experiment on SF-539 CNS, this molecule returned a TGI of over 100 µM.

On to `COCN1C(=N)C(C(=O)OC(C)(C)C)=C2C=C(O)C=CC21C` (stereo unspecified), for which the TGI in the experiment with CCRF-CEM leukemia was 50.7 µM; in the experiment on K-562 leukemia, over 100 µM; in the experiment with SK-MEL-5 melanoma, 28.6 µM; with MALME-3M melanoma, 21.3 µM; in the experiment on HT29 colon it was 19.9 µM; in the experiment with OVCAR-8 ovarian, 55.7 µM. Besides, the TGI with TK-10 renal was 26.2 µM; in the experiment on MDA-N, 31.9 µM; with OVCAR-5 ovarian it was 32.5 µM; in the experiment with SK-MEL-28 melanoma, 36.3 µM; in the experiment on RXF 393 renal, 19.3 µM; in the experiment on SNB-19 CNS, over 100 µM. The TGI came to 82.9 µM in the experiment on HS 578T breast; 24.2 µM with DU-145 prostate; 12.8 µM with BT-549 breast; 29 µM with MDA-MB-231 breast; 26.4 µM in the experiment on UO-31 renal; 24.7 µM in the experiment with 786-0 renal. This molecule gave a TGI with SF-539 CNS of 33.6 µM.

Turning to `C/C=C\C(CC(=O)NCCC1CN(C(=O)OCc2ccccc2)c2ccccc21)CC(=O)OC` (stereo unspecified), the TGI in the experiment on CCRF-CEM leukemia, in the experiment on K-562 leukemia, in the experiment with SK-MEL-5 melanoma, with OVCAR-3 ovarian, with MALME-3M melanoma and with HT29 colon was over 100 µM each time. The TGI with OVCAR-8 ovarian, in the experiment with TK-10 renal, with MDA-N, with OVCAR-5 ovarian, with SK-MEL-28 melanoma and in the experiment with RXF 393 renal was over 100 µM each time. Further, the TGI in the experiment with SNB-19 CNS, in the experiment on HS 578T breast, in the experiment with DU-145 prostate, in the experiment with BT-549 breast, in the experiment with MDA-MB-231 breast and in the experiment on UO-31 renal was over 100 µM throughout. Also, in the experiment with 786-0 renal, the TGI is over 100 µM.

As to `CCOC(=O)[C@@H](NC(=O)OC(C)(C)C)[C@@H](O)C(=O)OCC`, the TGI in the experiment with CCRF-CEM leukemia, in the experiment on K-562 leukemia, with SK-MEL-5 melanoma, in the experiment on OVCAR-3 ovarian, in the experiment on MALME-3M melanoma and in the experiment with HT29 colon was over 100 µM in each case. The TGI with OVCAR-8 ovarian, in the experiment on TK-10 renal, with MDA-N, in the experiment on OVCAR-5 ovarian, with SK-MEL-28 melanoma and in the experiment with RXF 393 renal was over 100 µM throughout. The TGI in the experiment with SNB-19 CNS, in the experiment on HS 578T breast, in the experiment on DU-145 prostate, in the experiment on BT-549 breast, in the experiment with MDA-MB-231 breast and in the experiment with UO-31 renal was over 100 µM throughout. In the experiment on 786-0 renal, this molecule displayed a TGI of over 100 µM.

On to `O=S(=O)(O)c1cc(S(=O)(=O)O)c2c(N=Nc3ccc(S(=O)(=O)O)c4ccccc34)c(O)ccc2c1`, for which the TGI with CCRF-CEM leukemia, in the experiment on K-562 leukemia, in the experiment on SK-MEL-5 melanoma, in the experiment on OVCAR-3 ovarian, in the experiment on MALME-3M melanoma and in the experiment on HT29 colon was over 100 µM in each case. In addition, the TGI in the experiment with OVCAR-8 ovarian, in the experiment on TK-10 renal, in the experiment with MDA-N, with OVCAR-5 ovarian, in the experiment with SK-MEL-28 melanoma and in the experiment with RXF 393 renal was over 100 µM throughout. For the same molecule, the TGI in the experiment on SNB-19 CNS, with HS 578T breast, with DU-145 prostate, in the experiment on BT-549 breast, in the experiment with MDA-MB-231 breast and in the experiment with UO-31 renal was over 100 µM each time. The TGI in the experiment with 786-0 renal was over 100 µM.
